Measurements reported in BigSolDB 2.1.

CC12CCC(CC1=O)C2(C)C (stereo not drawn)
Conditions	solubility (mole fraction)
in acetone, 303.15 K	0.553
in acetone, 308.15 K	0.571
in acetone, 313.55 K	0.594
in acetone, 319.25 K	0.614
in acetone, 323.15 K	0.627
in ethanol, 303.15 K	0.365
in ethanol, 308.15 K	0.396
in ethanol, 313.15 K	0.412
in ethanol, 318.15 K	0.451
in ethanol, 322.95 K	0.508
in ethanol, 327.95 K	0.538
in ethanol, 333.35 K	0.588
in ethanol, 338.15 K	0.63
in ethanol, 343.15 K	0.699
in p-cymene, 303.85 K	0.58
in p-cymene, 308.05 K	0.589
in p-cymene, 313.15 K	0.601
in p-cymene, 317.95 K	0.609
in p-cymene, 323.65 K	0.624
in p-cymene, 328.15 K	0.631
in p-cymene, 333.35 K	0.641
in p-cymene, 337.95 K	0.652
in p-cymene, 343.05 K	0.664
in p-xylene, 303.05 K	0.6
in p-xylene, 308.15 K	0.637
in p-xylene, 313.15 K	0.66
in p-xylene, 318.15 K	0.683
in p-xylene, 323.25 K	0.714
in p-xylene, 327.85 K	0.736
in p-xylene, 328.15 K	0.739
in p-xylene, 333.15 K	0.77
in p-xylene, 338.35 K	0.795
in p-xylene, 343.15 K	0.824
